Here are results for 43 compounds from article PMC10638516 (Acta Pharmaceutica Sinica. B, 2023).

Like-named read-outs stand apart in the source and are kept apart here.

One assay deals with hD3R (Homo sapiens, UniProt P35462). The assay can be described thus: biochemical. Type of assay: binding. To be noted: for Ki: Ki hD3, three experiments, means ± SEM.
Assay [1] deals with T1, hD2R (Homo sapiens, UniProt P14416). Put plainly: biochemical. Type of assay: binding. Conditions: for inhibition at 10 µM: read-out: % inhibition at 10 μmol/L hD2.
The target in assay [2] is T1, hD2R. The class given is cell-based.
Where [3] appears, read: read-out: % inhibition at 10 μmol/L hD3, 10 μmol/L test compound.

T1 sequence (P14416 whole entry): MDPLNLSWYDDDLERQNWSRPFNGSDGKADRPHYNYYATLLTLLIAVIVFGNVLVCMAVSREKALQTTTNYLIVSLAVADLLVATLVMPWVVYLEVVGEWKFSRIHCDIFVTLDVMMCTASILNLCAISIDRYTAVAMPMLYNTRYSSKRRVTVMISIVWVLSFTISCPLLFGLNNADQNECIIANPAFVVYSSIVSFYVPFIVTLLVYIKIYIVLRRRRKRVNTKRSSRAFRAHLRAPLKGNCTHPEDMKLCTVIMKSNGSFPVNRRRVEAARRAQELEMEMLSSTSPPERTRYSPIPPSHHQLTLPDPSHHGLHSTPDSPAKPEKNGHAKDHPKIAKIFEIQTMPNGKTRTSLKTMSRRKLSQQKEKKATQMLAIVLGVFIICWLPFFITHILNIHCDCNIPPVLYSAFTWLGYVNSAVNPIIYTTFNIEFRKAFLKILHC
hD3R, sequence (P35462 whole entry): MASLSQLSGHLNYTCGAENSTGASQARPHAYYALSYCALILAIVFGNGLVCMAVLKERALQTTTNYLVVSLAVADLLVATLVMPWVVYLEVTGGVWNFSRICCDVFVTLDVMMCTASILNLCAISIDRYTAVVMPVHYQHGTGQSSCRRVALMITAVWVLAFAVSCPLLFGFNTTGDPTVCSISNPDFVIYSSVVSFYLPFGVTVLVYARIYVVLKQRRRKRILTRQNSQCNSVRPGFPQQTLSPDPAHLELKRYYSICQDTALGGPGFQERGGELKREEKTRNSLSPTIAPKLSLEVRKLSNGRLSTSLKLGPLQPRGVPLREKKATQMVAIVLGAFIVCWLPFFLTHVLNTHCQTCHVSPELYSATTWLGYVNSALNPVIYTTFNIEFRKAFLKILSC

As a reminder, the Ki is the equilibrium dissociation constant of an inhibitor or competing ligand from its target. Low values mean higher affinity, high ones lower affinity. For the compound `Cn1c2c(c3ccccc31)CN(CCCCNC(=O)c1ccc3[nH]cnc3c1)CC2` [36j], the Ki was 14.2 ± 0.7 nM at hD3R and above 10000 nM at hD2R [1]. The inhibition at 10 µM came to 74.4 ± 8.2% at hD3R (setting [3]) and 27.7 ± 1.4% at hD2R [1].
Taken in the same sequence, the figures for `Cn1c2c(c3ccccc31)CN(CCCCNC(=O)c1ccc(-c3cccnc3)cc1)CC2` [36g] were 29 ± 3.3 nM, above 10000 nM, 83.8 ± 12.7% and 29.2 ± 5.8%.
As for `CCn1c2ccccc2c2cc(CNCCCCNC(=O)c3ccc(-c4ccccn4)cc3)ccc21` [23i], at hD3R, the “improvement of D3R binding affinity versus the phenyl group (23g)” value is recorded as “approximately 10 fold” and the Ki worked out at 21.3 ± 4.3 nM. Moreover, on hD3R (setting [3]), the inhibition at 10 µM is 101 ± 0.8%. Besides, at hD2R [1], the Ki was above 10000 nM and the inhibition at 10 µM came out at 6.5 ± 2.3%.
As for `Cn1c2c(c3ccccc31)CN(CCCCNC(=O)c1ccnc3ccccc13)CC2` [36e], the inhibition at 10 µM at hD3R (setting [3]) was 68.1 ± 1.9%; at hD2R [1] it was -2 ± 17.4%.
As for `CCn1c2c(c3ccccc31)CCN(CCCCNC(=O)c1cc3ccccc3[nH]1)C2` [42b], the results for the Ki at hD3R and on hD2R [1] were 12.9 ± 2.1 nM and above 10000 nM, respectively. In addition, the values for the inhibition at 10 µM at hD3R (setting [3]) and on hD2R [1] were 106 ± 3.6% and 17.5 ± 1.5%, respectively.
As to `CCn1c2ccccc2c2cc(CNCCCCNC(=O)c3cc4ccccn4n3)ccc21` [23c], the figures for the inhibitory constant (Ki) on hD3R and on hD2R [1] were 45.7 ± 2.2 nM and above 10000 nM, respectively. Moreover, on hD3R (setting [3]), the inhibition at 10 µM is 98.4 ± 2%.
On to `CCn1c2ccccc2c2cc(CNCCCNC(=O)c3cc4ccccc4[nH]3)ccc21` [22b], for which the inhibition at 10 µM at hD3R (setting [3]) turned out to be 21.3 ± 8.5%; at hD2R [1], 8.1 ± 3.9%.
In the case of `CCCN(CCCCNC(=O)c1cc2ccccc2[nH]1)Cc1ccc2c(c1)c1ccccc1n2CC` [31c], the Ki on hD3R worked out at 448 ± 26.1 nM; at hD2R [1] it was 301 ± 11.9 nM. Besides, the figures for the inhibition at 10 µM on hD3R (setting [3]) and at hD2R [1] were 98.6 ± 0.6% and 89.8 ± 2.9%, respectively.
With `CCn1c2ccccc2c2cc(CNCCCCNC(=O)c3ccc(-c4ccccc4)cc3)ccc21` [23g], the Ki at hD3R was 206 ± 2.9 nM; on hD2R [1], above 10000 nM. Besides, on hD3R (setting [3]), the inhibition at 10 µM was found to be 102 ± 1.2%.
Turning to `CCn1c2ccccc2c2cc(CNCCCCNC(=O)c3ccc4[nH]c(=O)[nH]c4c3)ccc21` [23e], the Ki is 99.3 ± 31.9 nM on hD3R and above 10000 nM on hD2R [1]. The inhibition at 10 µM at hD3R (setting [3]) came to 99.2 ± 0.5%; at hD2R [1], 1.9 ± 10.7%.
With `CCn1c2ccccc2c2cc(CNCCCn3cnc4c(Cl)ncnc43)ccc21` [17f], the inhibition at 10 µM at hD2R [1] turned out to be 12.8 ± 7.7%.
Take `Cn1c2c(c3ccccc31)CN(CCCCNC(=O)c1ccc3[nH]c(=O)[nH]c3c1)CC2` [36i]: the Ki at hD3R was 3.7 ± 0.6 nM; at hD2R [1] it was above 10000 nM. In addition, the inhibition at 10 µM on hD3R (setting [3]) is 87.5 ± 6.1%; on hD2R [1], 38.9 ± 3.8%.
Turning to `CCn1c2ccccc2c2cc(CNCCCNC(=O)c3nc4ccccc4[nH]3)ccc21` [22c], the inhibition at 10 µM is 32.7 ± 11.4% at hD3R (setting [3]) and 22.4 ± 5.7% at hD2R [1].
As for `CCn1c2c(c3ccccc31)CCN(CCCCNC(=O)c1ccc3[nH]c(=O)[nH]c3c1)C2` [42j], at hD3R, the Ki was 149 nM. Further, the inhibition at 10 µM on hD3R (setting [3]) is 85.9 ± 0.07%; at hD2R [1], 48.8 ± 0.7%.
`CCCN(CCCCNC(=O)c1cc2ccccn2n1)Cc1ccc2c(c1)c1ccccc1n2CC` [31e]: the Ki at hD3R is 478 ± 29.4 nM; at hD2R [1] it was above 10000 nM. Further, the inhibition at 10 µM turned out to be 74.8 ± 1.5% on hD3R (setting [3]) and 18.6 ± 2.5% at hD2R [1].
Taken in the same sequence, the figures for `CC(C)n1c2ccccc2c2cc(CNCCCn3ccnc3)ccc21` [3c] were 665 ± 13.5 nM, above 10000 nM, 83.8 ± 10.2% and 1.7 ± 9.2%.
Turning to `Cn1c2c(c3ccccc31)CN(CCCCNC(=O)c1cnc3ccccc3c1)CC2` [36d], the inhibition at 10 µM on hD3R (setting [3]) stood at 42.5 ± 6.8%; at hD2R [1], 15.6 ± 12.9%.
Taken in the same sequence, the figures for `Cn1c2c(c3ccccc31)CCN(CCCCNC(=O)c1ccc(-c3cccnc3)cc1)C2` [42g] were 69.6 ± 0.8% and 37.8 ± 1%.
As for `CCn1c2c(c3ccccc31)CCN(CCCCNC(=O)c1ccc3nc[nH]c3c1)C2` [42f], at hD3R, the affinity corresponds to a Ki of 300 nM. The inhibition at 10 µM stood at 80.6 ± 1.1% at hD3R (setting [3]) and 54.1 ± 0.1% on hD2R [1].
Take `CCn1c2ccccc2c2cc(CNCCCNC(=O)N(C)C)ccc21` [22a]: at hD3R (setting [3]), the inhibition at 10 µM was determined as 42.1 ± 2.2%.
Consider `CCn1c2c(c3ccccc31)CCN(CCCCNC(=O)c1ccc(-c3cccnc3)cc1)C2` [42h], for which the inhibition at 10 µM stood at 31.3 ± 0.6% at hD3R (setting [3]) and 28.9 ± 0.8% at hD2R [1].
Consider `CCn1c2ccccc2c2cc(CNCCCCNC(=O)c3ccnc4ccccc34)ccc21` [23m], for which, at hD3R (setting [3]), the inhibition at 10 µM was determined as 63.1 ± 0.2%.
In the case of `CCn1c2ccccc2c2cc(CNCCCn3cnc4cncnc43)ccc21` [17e], on hD2R [1], the inhibition at 10 µM came out at 10.6 ± 7.4%.
As for `Cn1c2c(c3ccccc31)CN(CCCCNC(=O)c1cn3nc(Cl)ccc3n1)CC2` [36c], the values for the inhibition at 10 µM at hD3R (setting [3]) and on hD2R [1] were 66.3 ± 9.1% and 21.1 ± 9%, respectively.
Consider `CCN(CCCCNC(=O)c1cc2ccccc2[nH]1)Cc1ccc2c(c1)c1ccccc1n2CC` [31a], for which the Ki on hD3R is 134 ± 9.6 nM; at hD2R [1], 333 ± 3.6 nM. The inhibition at 10 µM was 96.2 ± 0.2% at hD3R (setting [3]) and 88.1 ± 1.5% at hD2R [1].
For the compound `CCn1c2ccccc2c2cc(CNCCCCn3ccnc3)ccc21` [17a], the figures for the Ki on hD3R and at hD2R [1] were 994 ± 36.6 nM and above 10000 nM, respectively. Besides, on hD3R (setting [3]), the inhibition at 10 µM was 75.6 ± 3.5%.
For `Cn1c2c(c3ccccc31)CN(CCCCNC(=O)c1ccc3[nH]c4ccccc4c3c1)CC2` [36h], the Ki at hD3R stood at 19.6 ± 7.3 nM. Further, the inhibition at 10 µM came to 95.5 ± 0.7% at hD3R (setting [3]) and 74.4 ± 3.3% on hD2R [1].
Taken in the same sequence, the figures for `Cn1c2c(c3ccccc31)CCN(CCCCNC(=O)c1ccc3[nH]c(=O)[nH]c3c1)C2` [42i] were 112 nM, 85.2 ± 0.5% and 37.6 ± 0.2%.
With `c1ccc2c(c1)[nH]c1ccc(CNCCCn3ccnc3)cc12` [compound 8], the inhibition at 10 µM on hD3R (setting [3]) is 54.2 ± 7.7%; at hD2R [1] it was 33.2 ± 17.5%.
For the compound `CCN(CCCCNC(=O)c1ccc(-c2cccnc2)cc1)Cc1ccc2c(c1)c1ccccc1n2CC` [31b], the Ki at hD3R was 422 ± 18.3 nM; at hD2R [1] it was above 10000 nM. Further, the results for the inhibition at 10 µM on hD3R (setting [3]) and on hD2R [1] were 78.5 ± 0.3% and 36.9 ± 2.1%, respectively.
For the compound `CCn1c2ccccc2c2cc(CNCCCCNC(=O)c3ccc(-c4ccc(C(C)=O)cc4)cc3)ccc21` [23h], the Ki at hD3R is 24.2 ± 4.4 nM; on hD2R [1], above 10000 nM. For the same compound, the values for the inhibition at 10 µM on hD3R (setting [3]) and at hD2R [1] were 105 ± 1.5% and 5.2 ± 7.6%, respectively.
Taken in the same sequence, the figures for `CCCN(CCCCNC(=O)c1ccc(-c2cccnc2)cc1)Cc1ccc2c(c1)c1ccccc1n2CC` [31d] were 994 ± 45.3 nM, above 10000 nM, 81.3 ± 0.6% and 26.8 ± 0.9%.
Taken in the same sequence, the figures for `Cn1c2c(c3ccccc31)CCN(CCCCNC(=O)c1cc3ccccc3[nH]1)C2` [42a] were 6.8 ± 0.8 nM, above 10000 nM, 106 ± 1.3% and 9.1 ± 16.4%.
Take `CCn1c2ccccc2c2cc(CNCCCCNC(=O)c3ccc4[nH]cnc4c3)ccc21` [23d]: the values for the Ki at hD3R and on hD2R [1] were 125 ± 17.6 nM and above 10000 nM, respectively. The inhibition at 10 µM on hD3R (setting [3]) came to 98.5 ± 2.3%; on hD2R [1], 2.7 ± 4.3%.
Turning to `Cn1c2c(c3ccccc31)CCN(CCCCNC(=O)c1ccc3nc[nH]c3c1)C2` [42e], on hD3R, affinity was put at a Ki of 203 nM. In addition, the inhibition at 10 µM at hD3R (setting [3]) is 81.5 ± 0.6%; at hD2R [1], 49.7 ± 1.2%.
For the compound `CCn1c2c(c3ccccc31)CN(CCCCNC(=O)c1cc3ccccc3[nH]1)CC2` [36k], the figures for the Ki on hD3R and at hD2R [1] were 15.5 ± 1.8 nM and above 10000 nM, respectively. Besides, the inhibition at 10 µM on hD3R (setting [3]) came to 106 ± 2.2%; on hD2R [1] it was 13.2 ± 7.3%.
Taken in the same sequence, the figures for `CCn1c2ccccc2c2cc(CNCCCCNC(=O)c3ccc4[nH]c(=O)oc4c3)ccc21` [23f] were 95.1 ± 8.9 nM, above 10000 nM, 97.6 ± 0.3% and 5.5 ± 21.5%.
Taken in the same sequence, the figures for `CCn1c2ccccc2c2cc(CNCCCCNC(=O)c3cc4ccccc4[nH]3)ccc21` [23a] were 62.6 ± 8 nM, above 10000 nM, 87 ± 2.5% and 30 ± 14.1%.
With `CCn1c2ccccc2c2cc(CNCCCn3cnc4ccccc43)ccc21` [17d], the Ki on hD3R is 1100 ± 115 nM; on hD2R [1], above 10000 nM. The results for the inhibition at 10 µM at hD3R (read-out: % inhibition at 10 μmol/L hD3) and at hD2R [1] were 75 ± 14.5% and 71.8 ± 3.6%, respectively.
In the case of `CCn1c2ccccc2c2cc(CNCCCCNC(=O)c3nc4ccccc4[nH]3)ccc21` [23b], the Ki on hD3R was 578 ± 85 nM; at hD2R [1], above 10000 nM. For the same compound, the inhibition at 10 µM on hD3R (setting [3]) came to 86.7 ± 1.9%.
For `CCn1c2ccccc2c2cc(CNCCCCNC(=O)c3cnc4ccccc4c3)ccc21` [23l], the Ki is 85.7 ± 2.9 nM at hD3R and above 10000 nM at hD2R [1]. Further, the inhibition at 10 µM stood at 100 ± 1.3% on hD3R (setting [3]) and 9.6 ± 0.1% on hD2R [1].
Regarding `CCn1c2ccccc2c2cc(CNCCCCNC(=O)c3ccc4[nH]c5ccccc5c4c3)ccc21` [23k], the results for the Ki on hD3R and on hD2R [1] were 145 ± 11.9 nM and above 10000 nM, respectively. Also, the inhibition at 10 µM on hD3R (setting [3]) was determined as 98.1 ± 0.8%; at hD2R [1], 10.6 ± 3.3%.
Turning to `NCCc1ccc(O)c(O)c1` [dopamine, reference compound], the “effect on ERK1/2 phosphorylation mediated by hD2R, compound alone (agonist mode)” value at hD2R [2] is on record as “significantly increased”.
